According to article PMC8214221, “Sequence determinants in the cathelicidin LL-37 that promote inflammation via presentation of RNA to scavenger receptors” (The Journal of Biological Chemistry, 2021):
Residues, ends and D or L forms follow the SMILES beside them.

Tests used:
[1] = test system: U1 dsRNA binding on the surface of NHEKs; assay: Surface binding of Alexa 488-labeled U1 dsRNA to NHEKs; type: cell-based, human; conditions: Alexa 488 U1 0.05-10 μg/ml + peptide 2.5 μM, 10 min on ice; fluorometer RFU, n = 3
Protocol: We also assayed the dynamics of binding of U1 dsRNA on the surface of NHEKs in the presence of LL-34 mutant peptides. NHEKs were exposed to fluorescent Alexa 488–labeled U1 at increasing concentrations (0.05–10 μg/ml) and LL-34 parent peptide, LL-34 I24A, LL-34 L31A, LL-34 K25A, and LL-34 proline at isoleucine position 20 (I20P) for 10 min on ice to allow for surface binding of U1 to cells in the presence of peptides (Fig. 5A).
Figure 5 Biophysical properties of binding of U1 dsRNA to LL-34 peptides and SRB1 protein.A, NHEKs were treated with Alexa 488–labeled U1 dsRNA or a combination of Alexa 488–labeled U1 dsRNA (0.05–10 μg/ml) and LL-34 peptides LL-34 parent, LL-34 I24A, LL-34 K25A, LL-34 L31A, and LL-34 I20P at 2.5 μM as shown. The cells were prechilled on ice for 15 min before the addition of U1 dsRNA and/or LL-34 peptides, and the surface binding of U1 dsRNA was allowed for 10 min. The amount of U1 dsRNA binding to NHEKs was assessed with a fluorometer, and data are represented as relative fluorescence units (RFUs) (n = 3). B, NHEKs were similarly treated with Alexa-labeled U1 dsRNA (1.5 μg/ml) and/or unlabeled U1 dsRNA (15 μg/ml) with the addition of LL-34 parent peptide at 2.5 μM. The experiment was performed on ice for 10 min, and the relative binding of Alexa 488 U1 dsRNA was assessed on a fluorometer and is shown as RFU (n = 3) (∗p < 0.05) one-way ANOVA. C, SAXS spectra of LL-34 peptides LL-34 parent, LL-34 F5A, LL-34 I24A, and LL-34 L31A incubated with U1 dsRNA. The peptide-U1 dsRNA (P/R) ratio is varied at 1 and 2 for all conditions. The U1 dsRNA interhelical spacing (Q) was calculated by the peak position. The domain size (L) was calculated by the full width at half maximum of the first peak. LL-34, 34-amino acid peptide; NHEKs, normal human epidermal keratinocytes; SAXS, small-angle X-ray scattering.

scavenger receptor SRB1 = target: T1, scavenger receptor SRB1 (Homo sapiens, UniProt Q8WTV0); assay: Proximity ligation assay (PLA) on NHEKs; type: cell-based; conditions: peptide 2 μM 15 min, then biotinylated U1 dsRNA 2 μg/ml 60 min at 4 °C, spatial correlation <40 nm, n = 3
T1 construct: host or cells: NHEK (normal human epidermal keratinocytes)
T1 sequence (Q8WTV0 1-552): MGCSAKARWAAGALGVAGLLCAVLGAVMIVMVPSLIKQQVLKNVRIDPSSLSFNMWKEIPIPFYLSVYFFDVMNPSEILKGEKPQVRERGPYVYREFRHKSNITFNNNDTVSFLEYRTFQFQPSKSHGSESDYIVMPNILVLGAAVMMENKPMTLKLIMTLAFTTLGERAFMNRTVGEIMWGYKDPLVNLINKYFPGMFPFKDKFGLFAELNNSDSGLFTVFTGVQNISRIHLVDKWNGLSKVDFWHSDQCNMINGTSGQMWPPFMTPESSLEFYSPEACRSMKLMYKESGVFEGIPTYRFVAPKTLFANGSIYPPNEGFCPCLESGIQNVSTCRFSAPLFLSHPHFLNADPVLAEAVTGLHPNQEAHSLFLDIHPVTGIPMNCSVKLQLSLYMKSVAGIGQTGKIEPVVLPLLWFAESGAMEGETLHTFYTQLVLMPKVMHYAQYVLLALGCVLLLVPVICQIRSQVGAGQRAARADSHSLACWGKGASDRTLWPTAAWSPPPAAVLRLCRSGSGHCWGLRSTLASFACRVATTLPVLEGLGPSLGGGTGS
Protocol: Figure 4 LL-34 enables U1 dsRNA association with scavenger receptor (SR) SRB1.A and B, NHEKs with gene knockdown for SRs SCARB1, SCARB1, SCARA3, CD36, LRP1, CD163L1, CXCL16, MSR1, MARCO, and OLR1 were cotreated with U1 dsRNA (2.5 μg/ml) and LL-34 (2 μM) for 18 h. Gene expression of IFNB1 and CXCL10 was assessed with quantitative RT-PCR (n = 3). C, proximity ligation assay (PLA) for U1 dsRNA and SR SRB1 binding. NHEKs were treated with LL-34-parent, LL-34-I24A, and LL-34-L31A (2 μM) for 15 min, followed by treatment with biotinylated U1 dsRNA (2 μg/ml) for 60 min at 4 °C. The physical proximity of LL-34 and SRB1 (C), and U1 dsRNA, and SRB1 (D) was determined with fluorescence-based PLA that produces a red fluorescent signal. DAPI (blue) was used as a nuclear counterstain. The scale bar represents 50 μm. Signal counts of C and D from five visual fields were used for PLA signal quantification, as shown in E and F (n = 3). (∗p < 0.05; ∗∗p < 0.01; ∗∗∗p < 0.001; ∗∗∗∗p < 0.0001). […]
The binding of peptide to SRB1 or U1 to SRB1 was assessed by proximity ligation assay (PLA) (Fig. 4, C–E).
PLA was performed as described previously ([30]). […] PLA signals were captured on Olympus BX41 microscope (widefield) with 40× objective and counted by Duolink ImageTool software, version 1.0 (Sigma–Aldrich). Five fields were captured per treatment for quantification of PLA signals with ImageTool software. […]

SMILES | Binding of Alexa 488-labeled U1 dsRNA on the NHEK cell surface [1] | Localization of peptide with SRB1 (PLA) (scavenger receptor SRB1)
CC[C@H](C)[C@H](NC(=O)[C@H](CCCCN)NC(=O)[C@H](CCC(=O)O)NC(=O)[C@H](CCCCN)NC(=O)[C@H](CO)NC(=O)[C@H](CCCCN)NC(=O)[C@H](CCCNC(=N)N)NC(=O)[C@H](Cc1ccccc1)NC(=O)[C@H](Cc1ccccc1)NC(=O)[C@H](CC(=O)O)NC(=O)CNC(=O)[C@H](CC(C)C)NC(=O)[C@@H](N)CC(C)C)C(=O)NCC(=O)N[C@@H](CCCCN)C(=O)N[C@@H](CCC(=O)O)C(=O)N[C@@H](Cc1ccccc1)C(=O)N[C@@H](CCCCN)C(=O)N[C@@H](CCCNC(=N)N)C(=O)N[C@H](C(=O)N[C@H](C(=O)N[C@@H](CCC(N)=O)C(=O)N[C@@H](CCCNC(=N)N)C(=O)N[C@@H](C)C(=O)N[C@@H](CCCCN)C(=O)N[C@@H](CC(=O)O)C(=O)N[C@@H](Cc1ccccc1)C(=O)N[C@@H](CC(C)C)C(=O)N[C@@H](CCCNC(=N)N)C(=O)N[C@@H](CC(N)=O)C(=O)N[C@@H](CC(C)C)C(=O)N[C@H](C(=O)N1CCC[C@H]1C(=O)N[C@@H](CCCNC(=N)N)C(=O)O)C(C)C)C(C)C)[C@@H](C)CC [LL-34—I24A] (H-LLGDFFRKSKEKIGKEFKRIVQRAKDFLRNLVPR-OH) | nonsaturable binding | did not achieve close localization
CC[C@H](C)[C@H](NC(=O)[C@H](CCCCN)NC(=O)[C@H](CCC(=O)O)NC(=O)[C@H](CCCCN)NC(=O)[C@H](CO)NC(=O)[C@H](CCCCN)NC(=O)[C@H](CCCNC(=N)N)NC(=O)[C@H](Cc1ccccc1)NC(=O)[C@H](Cc1ccccc1)NC(=O)[C@H](CC(=O)O)NC(=O)CNC(=O)[C@H](CC(C)C)NC(=O)[C@@H](N)CC(C)C)C(=O)NCC(=O)N[C@@H](CCCCN)C(=O)N[C@@H](CCC(=O)O)C(=O)N[C@@H](Cc1ccccc1)C(=O)N[C@@H](CCCCN)C(=O)N[C@@H](CCCNC(=N)N)C(=O)N[C@H](C(=O)N[C@H](C(=O)N[C@@H](CCC(N)=O)C(=O)N[C@@H](CCCNC(=N)N)C(=O)N[C@H](C(=O)N[C@@H](CCCCN)C(=O)N[C@@H](CC(=O)O)C(=O)N[C@@H](Cc1ccccc1)C(=O)N[C@@H](CC(C)C)C(=O)N[C@@H](CCCNC(=N)N)C(=O)N[C@@H](CC(N)=O)C(=O)N[C@@H](C)C(=O)N[C@H](C(=O)N1CCC[C@H]1C(=O)N[C@@H](CCCNC(=N)N)C(=O)O)C(C)C)[C@@H](C)CC)C(C)C)[C@@H](C)CC [LL-34—L31A] (H-LLGDFFRKSKEKIGKEFKRIVQRIKDFLRNAVPR-OH) | nonsaturable binding | did not achieve close localization
